We go through 10 compounds from patent US9120787B2, “HIV replication inhibitors” (priority 2011, dated 2015).

For data set [1], the system named is HIV-1Ba-L. Put plainly: HIV-1Ba-L replication in PBMCs (supernatant RT end-point). Put shortly:
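Pooled PHA-stimulated human PBMCs (5×10^4 cells/well) were infected with HIV-1Ba-L at MOI 0.1 with nine ½-log compound dilutions and cultured seven days at 37° C. Supernatant RT activity was measured by ^3H-TTP incorporation on poly rA:oligo dT (60 minutes, 37° C) and counted by scintillation.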

Data set [2] can be described thus: Cytotoxicity by MTS staining in PBMCs. It is filed as cell-based. Conditions: human, peripheral blood mononuclear cells (PBMC), read-out: TC50. On the procedure: (§1) Cytotoxicity was assessed by MTS staining. At assay end-point, PBMC were stained with the addition of […] of the soluble tetrazolium-based dye MTS to determine cell viability and quantify compound toxicity. The plates were incubated 4 to 6 hrs at 37° C. Following incubation, the activity was assessed by reading absorbance values at 490/650 nm.

The target in data set [3] is T1, recombinant HIVNL4-3 heterodimeric (p66/p51) Reverse Transcriptase (Human immunodeficiency virus type 1 group M subtype B, UniProt P12497).
T1 construct: Purified recombinant HIVNL4-3 heterodimeric (p66/p51) Reverse Transcriptase (RT)
Put plainly: Biochemical reverse transcriptase assay. Set-up: species or system HIV-1. As to conditions: 5'LTR template/primer. On the procedure:
Enantiomers of Example 34 were created and utilized to assess the activity of the compounds in a biochemical reverse transcriptase assay. Purified recombinant HIVNL4-3 heterodimeric (p66/p51) Reverse Transcriptase (RT) was used in experiments. RT activity was determined by the incorporation of radiolabeled deoxyribonucleotides into the newly synthesized DNA strand. The standard RT reaction mixture contained a synthetic homopolymeric template/primer [poly(rA)/oligo(dT)] or in vitro transcribed viral RNA derived from the HIV-1NL4-3 5′-LTR region (nucleotide residues 454 to 652) and a primer complementary to the primer binding site (PBS, nucleotide residues 636 to 652), radiolabeled deoxyribonucleotide, dNTPs and RT. The reaction was carried out in a volume of 40 μl containing 50 mM Tris HCl, pH 7.8, 50 mM KCl, 5 mM MgCl2, 1 mM DTT, 50 μM each of dATP, dCTP, dGTP, 50 nM dTTP, 1 μCi of [^3H] dTTP (70-90 Ci/mM) and 5 nM template/primer. The reaction was initiated by the addition of 10 nM RT. For compound screening, serially diluted test articles were added to the reaction followed by the addition of RT. The reaction mixture was incubated at 37° C. for 1 h, then quenched by the addition of ice-cold trichloroacetic acid (TCA) to the final concentration of 10%. The plate was incubated at 4° C. for 1 h to precipitate the synthesized DNA, then rinsed 3-times with 10% TCA and 1 time with 70% ethanol. After addition of 25 μl scintillation fluid to completely dried wells, radioactivity is counted by MicroBeta scintillation counter. The reduction of radioactivity represents the potency of compound inhibition.

For data set [4], the system named is HIV-1Ba-L. As to the kind of experiment: Inhibition of virus replication in MAGI-CCR5 cells (β-galactosidase reporter). Format: cell-based. As to conditions: HIV-1Ba-L in MAGI-CCR5 cells; for IC50: 48 hours, β-galactosidase reporter expression, read-out: IC50. Put shortly: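 HeLa-derived MAGI-CCR5 cells (high CD4/CCR5, HIV-1 LTR-driven β-galactosidase) plated at 1.0×10^4 cells/well the day before infection with HIV-1Ba-L. Compounds tested at six concentrations in triplicate, with parallel uninfected plates for cytotoxicity.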

In a further data set the test system is MAGI-CCR5 cells. As to the kind of experiment: Cytotoxicity by MTS staining in uninfected MAGI-CCR5 cells. Format: cell-based. As to conditions: 48 hours, read-out: TC50 (the source's name). The method, boiled down:
(§2)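 Uninfected MAGI-CCR5 cells (HeLa-CD4-LTR-β-gal derived, expressing CD4/CCR5) plated at 1.0×10^4 cells/well the day before, then exposed to compounds at six concentrations in triplicate alongside parallel infected assays. Viability read by MTS staining.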

Data set [5] relates to peripheral blood mononuclear cells (PBMC). As to the kind of experiment: Cytotoxicity by MTS staining in PBMCs. It is filed as cell-based. Conditions: read-out: TC50 (the source's name). On the procedure: as §1
For the next data set, the system named is HIV-1 K103N, Y181C (A17). As to the kind of experiment: HIV-1 K103N, Y181C (A17) replication in PBMCs. Format: cell-based. An excerpt:
In another embodiment of the present disclosure compounds are provided which inhibit the replication of HIV strains resistant to NNRTIs. Compounds in this disclosure inhibit, A17, an HIV-1 virus with mutations in the RT non-nucleoside binding pocket, K103N and Y181C, in a dose-dependent susceptibility testing manner.
The asparagine variation at residue 103 and the cysteine variation at residue 181 are known to inhibit the activity of the NNRTI's.
Evaluation Dihydropyrimidines vs. HIV-1Ba-L and HIV-1 K103N, Y181C in PBMCs

Data set [6] can be described thus: Cytotoxicity by MTS staining in uninfected MAGI-CCR5 cells. Format: cell-based. Conditions: human, read-out: TC50. Put shortly:
as §2

Where [7] appears, read: Human immunodeficiency virus 1, PBMC, 168 h.
Setting [8] is: 5'LTR/dPR IC50, HIV RT biochemical assay.
Where [9] appears, read: HIV-1Ba-L in PBMCs, seven days, RT end-point.
The mark [10] stands for this setting: Virus Ba-L in PBMCs (Ba-L vs A17 comparison).
[11] abbreviates: Virus A17 (K103N, Y181C) in PBMCs.
Setting [12] is: Human immunodeficiency virus 1, BAL, PBMC.
Where [13] appears, read: Human immunodeficiency virus 1, PBMC.

“And” between values parts separate entries of the source, which are not always exact repeats. Equal values may be shown once. Read-outs that look alike come from different tables or passages of the source. Some results are limits rather than exact numbers.

For the compound `CC1=C(c2nc(-c3ccc(C#N)cc3)cs2)C(c2cccc(O)c2)NC(=O)N1` (single isomer, unassigned) [Example 34 (enantiomer)], in the data set on HIV-1Ba-L [1] (HIV-1Ba-L in PBMCs), the “TI (TC50/IC50)” value was “D (D < 10.0)”. In addition, the figures for the IC50 (with HIV-1Ba-L [1] (setting [7]); in data set [3] (setting [8])) were 5 to 100 µM and greater than 100 µM, respectively. In addition, the CC50 at 7 days in data set [2] (MTS staining) was no less than 100 µM.
As for `Cc1cn([C@H]2C[C@H](N=[N+]=[N-])[C@@H](CO)O2)c(=O)[nH]c1=O` [AZT, reference compound], the “TI (TC50/IC50)” value in the data set with HIV-1Ba-L [4] is listed as greater than 36.5; with HIV-1Ba-L [1] (HIV-1Ba-L in PBMCs), greater than 54.9; in the data set on HIV-1Ba-L [1] (setting [10]) it was greater than 88.6; in the data set with HIV-1 K103N, Y181C (A17) (setting [11]), greater than 629.0. The IC50 came out at 0.08 µM with HIV-1Ba-L [4]; 0.02 µM in the data set with HIV-1Ba-L [1] (setting [9]); 0.011 µM in the data set on HIV-1Ba-L [1] (setting [10]); 0.0016 µM with HIV-1 K103N, Y181C (A17) (Virus A17 (K103N, Y181C) in PBMCs, read-out: IC50). Further, the CC50 (in the data set on MAGI-CCR5 cells; in data set [5] (A17 line of the table); in data set [5] (Ba-L line of the table); in data set [5] (MTS staining)) was greater than 1 µM throughout.
For `Cc1cn([C@H]2C[C@H](N=[N+]=[N-])[C@@H](COP(=O)(O)OP(=O)(O)OP(=O)(O)O)O2)c(=O)[nH]c1=O` [AZT-TP], the IC50 in data set [3] (HIV RT biochemical assay, read-out: 5'LTR/dPR IC50) was 0.009 µM and 0.01 µM.
Regarding `CC1=C(c2nc(-c3ccc(C#N)cc3)cs2)C(c2cccc(O)c2)NC(=O)N1` (stereo not drawn) [Example 34], the “TI (TC50/IC50)” value is “A (A = TI (TC50/IC50) ≧ 100.0)” in the data set with HIV-1Ba-L [4] and “A (A = TI (TC50/IC50) ≧100.0)” with HIV-1Ba-L [1] (HIV-1Ba-L in PBMCs). In addition, the IC50 (with HIV-1Ba-L [4] (Human immunodeficiency virus 1); in the data set with HIV-1Ba-L [1] (setting [7]); in data set [3] (setting [8])) was less than 1 µM each time. Moreover, the CC50 at 48 h in data set [6] was no less than 100 µM. For the same compound, the CC50 at 7 days in data set [2] (MTS staining) was in the range of 50 to 100 µM.
Turning to `CC1=C(c2nc(-c3ccc(C#N)cc3C)cs2)C(c2cccnc2F)NC(=O)N1` (stereo not drawn) [Example 83], in the data set on HIV-1Ba-L [4], the “TI (TC50/IC50)” value is listed as “B (B < 100.0-50.0)” and the IC50 is less than 1 µM. The CC50 in the data set on MAGI-CCR5 cells was less than 50 µM.
Take `CC1=C(c2nc(-c3ccc(C#N)cc3C)cs2)C(c2cccnc2F)NC(=O)N1` (stereo not drawn) [Example 86]: the “TI (TC50/IC50)” value in the data set with HIV-1Ba-L [4] was “A (A = TI (TC50/IC50) ≧ 100.0)”; in the data set with HIV-1Ba-L [1] (HIV-1Ba-L in PBMCs), “A (A = TI (TC50/IC50) ≧100.0)”; in the data set with HIV-1Ba-L [1] (setting [10]), “A (A = TI (TC50/IC50) ≧ 100.0)”; with HIV-1 K103N, Y181C (A17) (setting [11]), “D (D < 10.0)”. Moreover, the IC50 is less than 1 µM with HIV-1Ba-L [4]; less than 1 µM in the data set on HIV-1Ba-L [1] (setting [12]); less than 1 µM in the data set on HIV-1Ba-L [1] (setting [7]); 5 to 100 µM in the data set with HIV-1 K103N, Y181C (A17) (setting [13]). Moreover, the CC50 with MAGI-CCR5 cells was no less than 100 µM. The CC50 at 7 days in data set [2] (A17 line of the table), in data set [2] (Ba-L line of the table) and in data set [2] (MTS staining) was no less than 100 µM throughout.
`CC1=C(c2nc(-c3ccc(C#N)cc3)cs2)C(c2ccc(C(F)(F)F)nc2)NC(=O)N1` (stereo not drawn) [Example 96]: the “TI (TC50/IC50)” value in the data set with HIV-1Ba-L [4] was “A (A = TI (TC50/IC50) ≧ 100.0)”; in the data set on HIV-1Ba-L [1] (HIV-1Ba-L in PBMCs), “A (A = TI (TC50/IC50) ≧100.0)”; in the data set on HIV-1Ba-L [1] (setting [10]), “A (A = TI (TC50/IC50) ≧ 100.0)”; in the data set on HIV-1 K103N, Y181C (A17) (setting [11]), “D (D < 10.0)”. Moreover, the IC50 in the data set with HIV-1Ba-L [4] (Human immunodeficiency virus 1) was less than 1 µM; with HIV-1Ba-L [1] (setting [12]), less than 1 µM; in the data set on HIV-1Ba-L [1] (setting [7]), less than 1 µM; with HIV-1 K103N, Y181C (A17) (setting [13]), 5 to 100 µM. Moreover, in data set [6], the CC50 at 48 h is no less than 100 µM. For the same compound, the CC50 at 7 days in data set [2] (A17 line of the table), in data set [2] (Ba-L line of the table) and in data set [2] (MTS staining) was no less than 100 µM each time.
Take `Cc1ccnc2c1NC(=O)c1cccnc1N2C1CC1` [Nevirapine]: the IC50 in data set [3] (setting [8]) was 0.29 µM and 0.19 µM.
Turning to `Cc1ccc(-c2ccc3c(c2)C=C(C(=O)Nc2ccc(C[N+](C)(C)C4CCOCC4)cc2)CCC3)cc1.[Cl-]` [TAK 779, reference compound], the “TI (TC50/IC50)” value is 2902.7 with HIV-1Ba-L [4] and greater than 29.9 with HIV-1Ba-L [1] (HIV-1Ba-L in PBMCs). In addition, the IC50 turned out to be 0.004 µM with HIV-1Ba-L [4] and 0.35 µM with HIV-1Ba-L [1] (setting [9]). For the same compound, the CC50 (in the data set on MAGI-CCR5 cells; in data set [5] (MTS staining)) was greater than 10 µM throughout.
On to `Cc1cc(C#N)cc(C)c1Oc1nc(Nc2ccc(C#N)cc2)nc(N)c1Br` [TMC-125, Etravirine, reference compound], for which the “TI (TC50/IC50)” value in the data set on HIV-1Ba-L [4] is recorded as >37,500.0; with HIV-1Ba-L [1] (HIV-1Ba-L in PBMCs), greater than 325.0; in the data set on HIV-1Ba-L [1] (setting [10]), greater than 402.0; with HIV-1 K103N, Y181C (A17) (setting [11]) it was greater than 101.0. For the same compound, the IC50 was determined as 0.003 µM in the data set on HIV-1Ba-L [4] (Human immunodeficiency virus 1); 0.19 µM in data set [3] (setting [8]); 0.01 µM in the data set with HIV-1 K103N, Y181C (A17) (setting [13]). Further, the CC50 at 48 h in data set [6] is greater than 100 µM. Also, the CC50 at 7 days in data set [2] (A17 line of the table), in data set [2] (Ba-L line of the table) and in data set [2] (MTS staining) was greater than 1 µM in each case.
